# Measurements reported in ChEMBL document CHEMBL1221404, “Caylobolide B, a macrolactone from symplostatin 1-producing marine cyanobacteria Phormidium spp. from Florida” (J Nat Prod, 2010).
# Assays:
# Format in all cases: functional, cell-based
# HT-29 = assay: Cytotoxicity against human HT-29 cells after 48 hrs by MTT assay; settings: HT-29, 48 h
# HCT-116 = assay: Cytotoxicity against human HCT116 cells
# HeLa = assay: Cytotoxicity against human HeLa cells after 48 hrs by MTT assay
Compound,IC50 (HT-29) [µM],AC50 (HCT-116),IC50 (HeLa) [µM]
CC[C@H](C)[C@@H]([C@@H](CC(=O)N1CCC[C@H]1[C@H](OC)[C@@H](C)C(=O)N[C@@H](Cc1ccccc1)c1nccs1)OC)N(C)C(=O)[C@@H](NC(=O)[C@H]([C@@H](C)CC)N(C)C)C(C)C [SYMPLOSTATIN 1],0.0015,,
CCCCC(C)C1C[C@@H](O)CCC[C@H](O)C[C@@H](O)C[C@@H](O)CCCC(O)CCCC(O)CCCC(O)CCCC(O)CC(O)CCC/C(C)=C/C(=O)O1 (some centres undefined) [CAYLOBOLIDE A],,Active,
CCCCC(C)C1CC(O)CCC[C@H](O)C[C@@H](O)C[C@@H](O)CCCC(O)CCCC(O)CCCC(O)CCC[C@@H](O)C[C@@H](O)CCC/C(C)=C/C(=O)O1 (some centres undefined) [CAYLOBOLIDE B],4.5,,12.2
